The source made the active and inactive calls. The calls are words filed in the database; no cut-off is given here.
Tests used:
[1] = Clearance in Sprague-Dawley rat; type: ADME, organism-based; conditions: in vivo
[2] = Volume of distribution at Steady state in Sprague-Dawley rat; type: ADME, organism-based; conditions: in vivo, read-out: Vdss
[3] = Oral bioavailability in Sprague-Dawley rat; type: ADME, organism-based; conditions: in vivo
[4] = Dissociation constant, pKa of the compound at pH 7.2; type: physicochemical
Rattus norvegicus [5] = experiment: Inhibition of FAAH in Sprague-Dawley rat brain homogenate assessed as time duration needed for enzyme activity recovery by measuring [3H]-anandamide hydrolysis at 20 mg/kg by liquid scintillation analysis; type: functional
[6] = target: T1, Fatty-acid amide hydrolase 1 (Rattus norvegicus, UniProt P97612); experiment: Apparent inhibition of recombinant rat FAAH expressed in SK-N-MC cells assessed as [3H]-anandamide hydrolysis after 1 hr by liquid scintillation analysis; type: cell-based
T1 sequence (P97612 whole entry): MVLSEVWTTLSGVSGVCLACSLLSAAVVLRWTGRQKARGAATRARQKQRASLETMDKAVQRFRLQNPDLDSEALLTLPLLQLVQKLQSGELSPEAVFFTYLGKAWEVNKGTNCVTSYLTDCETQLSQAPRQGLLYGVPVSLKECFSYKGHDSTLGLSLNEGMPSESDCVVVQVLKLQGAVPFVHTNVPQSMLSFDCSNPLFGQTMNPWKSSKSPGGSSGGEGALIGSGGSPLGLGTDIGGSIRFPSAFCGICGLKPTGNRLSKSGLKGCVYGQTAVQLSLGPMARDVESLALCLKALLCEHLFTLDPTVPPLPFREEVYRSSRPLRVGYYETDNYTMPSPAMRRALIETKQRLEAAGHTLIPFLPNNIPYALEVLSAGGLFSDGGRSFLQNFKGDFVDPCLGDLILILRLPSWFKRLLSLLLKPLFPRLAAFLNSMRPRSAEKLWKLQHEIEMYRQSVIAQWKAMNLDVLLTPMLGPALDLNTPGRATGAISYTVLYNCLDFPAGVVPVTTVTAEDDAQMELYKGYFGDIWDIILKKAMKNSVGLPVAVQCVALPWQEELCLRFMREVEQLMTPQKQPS

[7] = Ratio of drug level in brain to plasma in Sprague-Dawley rat at 20 mg/kg via oral gavage; type: ADME, organism-based; conditions: read-out: BPR
Rattus norvegicus [8] = experiment: Inhibition of FAAH in Sprague-Dawley rat brain homogenate assessed as increase in PEA levels at 20 mg/kg after 0.5 to 4 hrs by […]; type: functional, organism-based
Rattus norvegicus [9] = experiment: Inhibition of FAAH in Sprague-Dawley rat brain homogenate assessed as increase in OEA levels at 20 mg/kg after 0.5 to 4 hrs by […]; type: functional, organism-based
[10] = target: T2, Fatty-acid amide hydrolase 1 (Homo sapiens, UniProt O00519)
T2 sequence (O00519 whole entry): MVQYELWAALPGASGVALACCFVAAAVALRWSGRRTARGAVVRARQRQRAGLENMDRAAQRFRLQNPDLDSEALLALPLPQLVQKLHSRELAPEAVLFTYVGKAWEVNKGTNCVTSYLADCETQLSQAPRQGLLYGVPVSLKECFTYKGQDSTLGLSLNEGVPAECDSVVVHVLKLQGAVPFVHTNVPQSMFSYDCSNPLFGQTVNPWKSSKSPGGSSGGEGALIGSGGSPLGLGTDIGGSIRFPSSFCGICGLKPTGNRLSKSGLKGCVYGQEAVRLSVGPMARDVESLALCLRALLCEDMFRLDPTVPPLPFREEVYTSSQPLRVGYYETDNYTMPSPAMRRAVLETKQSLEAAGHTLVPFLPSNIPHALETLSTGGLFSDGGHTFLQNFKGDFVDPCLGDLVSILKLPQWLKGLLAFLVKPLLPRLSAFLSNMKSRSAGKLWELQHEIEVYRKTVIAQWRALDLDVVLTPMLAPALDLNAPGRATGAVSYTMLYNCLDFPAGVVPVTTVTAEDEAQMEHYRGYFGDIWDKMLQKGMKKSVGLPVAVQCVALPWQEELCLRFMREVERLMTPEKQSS

[11] = Dissociation constant, pKa of the compound; type: physicochemical
Rattus norvegicus [12] = experiment: Inhibition of FAAH in Sprague-Dawley rat brain homogenate assessed as residual activity measured as [3H]-anandamide hydrolysis at 20 mg/kg within 30 mins by liquid scintillation analysis; type: functional
Rattus norvegicus [13] = organism: Rattus norvegicus; conditions: Sprague-Dawley, Brain, 20 mg/kg
Description: Inhibition of FAAH in Sprague-Dawley rat brain homogenate assessed as reduction in residual activity measured as [3H]-anandamide hydrolysis at 20 mg/kg measured after 0.5 to 6 hrs by liquid scintillation analysis

Rattus norvegicus [14] = experiment: Inhibition of FAAH in Sprague-Dawley rat brain homogenate assessed as increase in PEA levels at 0.1 to 100 mg/kg measured 4 hrs post dosing by […]; type: functional, organism-based
Rattus norvegicus [15] = experiment: Inhibition of FAAH in Sprague-Dawley rat brain homogenate assessed as increase in OEA levels at 0.1 to 100 mg/kg measured 4 hrs post dosing by […]; type: functional, organism-based
[16] = Ratio of drug level in brain to plasma in Sprague-Dawley rat at 10 mg/kg via oral gavage; type: ADME, organism-based; conditions: read-out: BPR
[17] = Ratio of drug level in brain to plasma in Sprague-Dawley rat at 0.6 mg/kg via oral gavage; type: ADME, organism-based; conditions: read-out: BPR
[18] = Ratio of drug level in brain to plasma in Sprague-Dawley rat at 6 mg/kg via oral gavage; type: ADME, organism-based; conditions: read-out: BPR
Rattus norvegicus [19] = experiment: In-vivo reversible inhibition of FAAH in Sprague-Dawley rat brain homogenate assessed as residual activity measured as [3H]-anandamide hydrolysis after 48 hrs by liquid scintillation analysis; type: functional, organism-based
Plasma = experiment: Drug uptake in Sprague-Dawley rat plasma at 20 mg/kg via oral gavage after 4 hrs by LC-MS/MS analysis; type: ADME, organism-based; conditions: in vivo
Brain = experiment: Drug uptake in Sprague-Dawley rat brain at 20 mg/kg via oral gavage after 4 hrs by LC-MS/MS analysis; type: ADME, organism-based; conditions: in vivo

Compound	clearance [1] [mL/min/kg]	Vd [2] [L/kg]	bioavailability [3] [%]	Time (Rattus norvegicus [5]) [h]	IC50 [6] [nM]	Kp [7]	FAAH inhibition (PEA level increase), active/inactive (Rattus norvegicus [8])	OEA level increase (activity call) (Rattus norvegicus [9])	IC50 [10] [nM]	further results
O=C(Nc1nnn[nH]1)N1CCN(Cc2cccc(Oc3ccc(Cl)cc3)c2)CC1	3.33	1.1	100	–	–	–	–	–	–	pKa [4]: 4.9
O=C(Nc1cccnc1)N1CCCC(Cc2cccc(Oc3ccc(F)cc3)c2)C1 (configuration not stated)	–	–	–	24	41	0.33	Active	Active	28	–
O=C(Nc1cnccn1)N1CCN(Cc2cccc(Oc3ccc(Cl)cc3)c2)CC1	15.5	4.11	35	24	84	–	Active	Active	–	pKa [11]: 0.6; Activity (Rattus norvegicus [12]): 10%; inhibition (Rattus norvegicus [13]): Active
O=C(Nc1cnccc1Cl)N1CCN(Cc2cccc(Oc3ccc(Cl)cc3)c2)CC1	46.5	3.33	18	24	20	1.18	Active	Active	1.3	pKa [11]: 3.85
O=C(Nc1cc[nH]n1)N1CCN(Cc2cccc(Oc3ccc(Cl)cc3)c2)CC1	8.33	2	75	24	–	–	Active	Active	–	pKa [11]: 2.5
O=C(Nc1cccnc1)N1CCN(Cc2cccc(Oc3ccc(C(F)(F)F)cc3)c2)CC1	–	–	–	24	–	1.99	–	–	–	inhibition (Rattus norvegicus [14]): Active; inhibition (Rattus norvegicus [15]): Active
O=C(Nc1cccnc1)N1CCN(Cc2cccc(Oc3ccc(F)cc3)c2)CC1	10	4	100	24	290	1.57	Active	Active	16	–
O=C(Nc1cccnc1)N1CCC(Cc2cccc(Oc3ccc(Cl)cn3)c2)CC1	–	–	–	24	22	0.45	Active	Active	1	–
O=C(Nc1cnccc1Cl)N1CCN(Cc2cccc(Oc3ccc(F)cc3)c2)CC1	–	–	–	24	48	0.67	Active	Active	3.3	–
N#Cc1ccncc1NC(=O)N1CCN(Cc2cccc(Oc3ccc(Cl)cc3)c2)CC1	–	–	–	24	17	3.28	Active	Active	17	pKa [11]: 1.9
O=C(Nc1ccccc1)N1CCN(Cc2cccc(Oc3ccc(Cl)cc3)c2)CC1	–	–	–	24	–	–	–	–	–	Kp [16]: 3.64
O=C(Nc1noc2ccccc12)N1CCN(Cc2cccc(Oc3ccc(Cl)cc3)c2)CC1	9.33	2.48	44	24	8	–	Active	Active	–	–
O=C(Nc1cccnc1)N1CCN(Cc2cccc(Oc3ccc(Cl)cc3)c2)CC1	11.5	3.2	–	24	–	2.62	–	–	–	pKa [11]: 5.25; Kp [17]: 2.62; Kp [18]: 2.62; inhibition (Rattus norvegicus [19]): Active
O=C(Nc1cccnc1)N1CCC(Cc2cccc(Oc3ccc(Cl)cc3)c2)CC1	–	–	–	24	215	2.26	Active	Active	4.3	–
O=C(Nc1cccc2nccn12)N1CCN(Cc2cccc(Oc3ccc(Cl)cc3)c2)CC1	–	–	–	24	–	–	Active	Active	–	pKa [4]: 6.8
O=C(Nc1cccnc1)N1CCN(Cc2cc(Cl)cc(Oc3ccc(Cl)cc3)c2)CC1	–	–	–	24	76	1.26	Active	Active	8	Drug uptake (Plasma): Dose-dependent effect; Drug uptake (Brain): Dose-dependent effect
O=C(Nc1ccon1)N1CCN(Cc2cccc(Oc3ccc(Cl)cc3)c2)CC1	10	2.6	50	24	–	–	Active	Active	–	–
O=C(Nc1cccnc1)N1CCN(Cc2cccc(Oc3ccc(Br)cc3)c2)CC1	13.3	2.8	100	24	20	1.58	–	–	2.4	–
